Results as given in patent publication US20040242687A1, “Thrombus/thrombogenesis inhibitors” (priority 2001, published 2004).
Entries after “also recorded” stand apart in the source; their conditions may differ. Where two headings read alike, the source gives them in different places.

Tests used:
[1] = tested on: stroke, myocardial infarction and vascular death; details: 142 trials; cited from earlier work
[2] = tested on: patients with transient cerebral ischemic attack (TIA) / cerebral infarction; details: for recurrence of TIA / onset or recurrence of cerebral infarction during administration: administration continued for 337 days, single patients, hydrochloride
Description: The present invention will be explained according to the following examples in more detail. However, the scope of the invention is not limited to these examples.
A person. They occurred transient cerebral ischemic attack (TIA). From three days after the onset, treatment with 160 mg/day of Cataclot (Ono Pharmaceutical Co., Ltd.) was started and it was continued for 2 weeks.
A person. They occurred TIA.
A person. They occurred TIA. From three days after the onset, treatment with 81 mg/day of Kids Bufferin (Lion Corporation) was started and this treatment was continued for about one month.
(§1) A person. They occurred cerebral infarction.
A person. They occurred cerebral infarction and, ten months after the occurrence of TIA.
as §1
A person. They occurred cerebral infarction. […] From that day of the onset of TIA, they were hospitalized for one week and subjected to intravenous drip containing 1 g of Nicholin H (Takeda Chemical Industries, Ltd.) and administration of 300 mg/day of Panaldine (Daiichi Pharmaceutical Co., Ltd.).
A person. They occurred cerebral infarction. […] They occurred TIA two years after the onset of cerebral infarction. From that day of the onset of TIA, administration of 200 mg/day of Panaldine (Daiichi Pharmaceutical Co., Ltd.) and, in addition, 162 mg/day of Kids Bufferin (Lion Corporation) was started.
A person. They occurred cerebral infarction. […] Immediately after the recurrence, they were treated with fluid for supplementation, urokinase and 300 mg/day of Panaldine (Daiichi Pharmaceutical Co., Ltd.).

| SMILES | reduction ratio of odds concerning stroke, myocardial infarction and vascular death against the control group [1] [%] | recurrence of TIA / onset or recurrence of cerebral infarction during administration ([2]; 75 mg/day) | recurrence of TIA / onset or recurrence of cerebral infarction during administration ([2]; 150 mg/day) | recurrence of TIA and cerebral infarction during administration ([2]; 150 mg/day, administration continued for 496 days, single patient) | recurrence of TIA / onset or recurrence of cerebral infarction during administration ([2]; 300 mg/day) |
| --- | --- | --- | --- | --- | --- |
| CC(=O)Oc1ccccc1C(=O)O [aspirin] | 25 |  |  |  |  |
| COc1cccc(CCc2ccccc2OCC(CN(C)C)OC(=O)CCC(=O)O)c1.Cl (racemic) [sarpogrelate hydrochloride, (±)-1-[O-[2-(m-methoxyphenyl)ethyl]phenoxy]-3-(dimethylamino)-2-propyl hydrogensuccinate hydrochloride] |  | neither recurrence of TIA nor onset of cerebral infarction was observed; also recorded: recurrence of TIA and cerebral infarction was not observed | neither recurrence of TIA nor onset of cerebral infarction was observed; also recorded: recurrence of TIA and cerebral infarction was not observed | recurrence of TIA and cerebral infarction was not observed | neither recurrence of TIA nor onset of cerebral infarction was observed; also recorded: recurrence of TIA and cerebral infarction was not observed |
